Data published in patent US10519125B2, “Flavagline derivatives” (PIERRE FABRE MEDICAMENT, priority 2014, dated 2019).

Legend:
[1] = system: HCT116 line (human colon cancer cell line); experiment: Antiproliferative (cytotoxic) activity on HCT116 line, ATPLite cell viability, 72 hours; type: cell-based; settings: HCT-116, HCT116, 72 hours after addition, ATPLite, read-out: HCT116 (EC50)
Method: 2.1. Antiproliferative Activity of the Compounds According to the Invention (IC50 in M)
Culture of Lines and Measurement of Cell Viability:
The HCT116 line (ATCC, CCL-247) derived from colon cancer was cultured in MEM (Minimum Essential Medium Eagle) supplemented with 2 mM L-glutamine (Sigma, G7513), 5% fetal calf serum (Sigma, F7524) and antibiotics (Sigma, A59-55). The protocol for determining cytotoxic activity consists in seeding cells on 96-well plates (Perkin Elmer, 6005668) at a density of 1500 cells per well. After 24 hours of incubation, the test compound is applied in each well, using serial dilutions in the solvent dimethylsulfoxide (DMSO) (Sigma, D8418), from 10 mM stock solutions in 100% DMSO. Each dilution was added to the cells 24 hours after seeding. Under these conditions, the final solvent concentration is 0.1% DMSO. A reading of cell proliferation was carried out 72 hours after addition of the products with the ATPLite™ kit (Perkin Elmer, 6016947) and according to the manufacturer's recommendations. The analysis of the proliferation results was carried out by comparison with conditions where only the carrier solvent (culture medium, 0.1% DMSO) was added to the cells. The dose-response curves obtained were analyzed using the PRISM 4.03 software (GraphPad Software Inc.), or by an equivalent analytical method, to determine the concentration of each compound which inhibits 50% of cell proliferation (EC50).
By way of example, the cytotoxic properties of several compounds of the invention evaluated on the HCT116 line (human colon cancer cell line) are reported in Table 1.

[2] = system: MDA-MB-231 human tumor xenograft; experiment: Antitumor activity, subcutaneous MDA-MB-231 breast cancer xenografts in SCID mice; type: in vivo; settings: for Activity: q1d5 × 3, MDA-MB-231; for Deaths (%): q1d5 × 3, SCID mice
Method: Subcutaneous xenografts were established with MDA-MD-231 breast cancer cells (ATCC: HTB-26) in SCID mice (Harlan, U.K.). The animals were treated and cared after in accordance with the Guide For the Care and Use of Laboratory Animals (National Research Council, 1996) and with European Directive 86/609/EEC, under the supervision of a staff expert authorized to conduct experimental studies with laboratory animals.
All the experiments were conducted pursuant to French and local regulations (Department of Veterinary Services, Haute-Garonne, Toulouse) according to the directives of an ethics committee, based on the UKCCCR Guidelines for the Welfare of Animals in Experimental Neoplasia, as indicated above. The implantation of MDA-MB-231 human tumor fragments is carried subcutaneously in the flanks of SCID mice using a trocar and, for the study of tumor growth, the tumors are allowed to reach a median volume of 70-130 mm^3 before starting the studies.
After randomization in the treatment cages, the inhibitors were administered intravenously according to a g1d5×3 treatment scheme (5 injections per week for 3 weeks). The mice were monitored and weighed daily. The tumors were measured with a slide caliper and the tumor volumes (mm^3) were estimated using the following formula: volume=0.5 (length×width^2). Each experimental group consists of 5 individuals. The efficacy of the treatment was evaluated by analysis of the measurement of the median volume of the treated tumors compared with the median volume of the tumors receiving only carrier (control). The T/C evaluation criterion corresponds to: [(median volume of the treated group, T/median volume of the control group, C)×100]. This T/C ratio is expressed as a percentage. The optimal T/C value corresponds to the ratio which reflects the maximum inhibition of growth obtained during the study. The maximum gains or losses of weight, expressed as a percentage of the initial weight of the animals, as well as the percentage of drug-related deaths (i.e., the percentage of treated animals that died before the assessment) were used to provide an evaluation of the toxicity of the compounds. In accordance with the NCI (National Cancer Institute) criterion, a dose is deemed toxic if it induces weight loss greater than −20% relative to the initial weight of the mouse or if it induces more than 20% deaths (Corbett et al. J Exp Ther Oncol 1996, 1:95-108).

[3] = Mus musculus, MDA-MB-231, iv, read-out: Opt. T/C (%)

Compound	EC50 [1] [nM]	Activity ([2]; 0.2 mg/kg intravenously)	Deaths (%) ([2]; 0.2 mg/kg intravenously)	Activity ([2]; 0.5 mg/kg intravenously)	Deaths (%) ([2]; 0.5 mg/kg intravenously)	Activity ([2]; 0.7 mg/kg intravenously)	Deaths (%) ([2]; 0.7 mg/kg intravenously)	Activity ([2]; 1 mg/kg intravenously)	Deaths (%) ([2]; 1 mg/kg intravenously)	Activity ([2]; 1.4 mg/kg intravenously)	Deaths (%) ([2]; 1.4 mg/kg intravenously)	response vs control in vivo at 0.2 mg/kg [2, 3] [%]	response vs control in vivo at 0.5 mg/kg [2, 3] [%]	response vs control in vivo at 0.7 mg/kg [2, 3] [%]	toxicity ([2]; above a dose of 0.7 mg/kg)	antitumor activity ([2]; below a dose of 0.7 mg/kg)	response vs control in vivo at 1.4 mg/kg [2, 3] [%]
COC(=O)[C@H]1[C@@H](O)[C@@]2(O)c3c(OC)cc(O[C@@H]4O[C@@H]([C@H](O)CO)CO[C@H]4OC)cc3O[C@@]2(c2ccc(OC)cc2)[C@@H]1c1ccccc1 [silvestrol, reference compound]	2.46	No activity	0	No activity	0	Toxic	40	Toxic	100	Toxic	100	92	83	63	highly toxic	no antitumor activity	
COc1ccc([C@@]23Oc4cc(OC)cc(OC)c4[C@]2(O)[C@@H]2OC(=S)N[C@@H]2[C@H]3c2ccccc2)cc1 (racemic) [Compound 46, rac-(3aR,4R,4aR,9bS,9cR)-9b-hydroxy-7,9-dimethoxy-4a-(4-methoxyphenyl)-4-phenyl-3,3a,4,4a,9b,9c-hexahydro-2H-benzofuro[3′,2′:3,4]cyclopenta[1,2-d]oxazole-2-thione]	2.59									Active	0						39
COC(=O)[C@H]1[C@@H](O)[C@@]2(O)c3c(OC)cc(OCCN)cc3O[C@@]2(c2ccc(OC)cc2)[C@@H]1c1ccccc1 (racemic) [Compound 2, rac-(1R,2R,3S,3aR,8bS)-methyl 6-(2-aminoethoxy)-1,8b-dihydroxy-8-methoxy-3a-(4-methoxyphenyl)-3-phenyl-2,3,3a,8b-tetrahydro-1H-cyclopenta[b]benzofuran-2-carboxylate]	4.03	Active	0									37					
